Biological target: T1, Human M4 (Homo sapiens, UniProt P08173)
T1 construct: Human or rat M4 cDNA, along with the chimeric G protein Gqi5, were transfected into Chinese hamster ovary (CHO-K1) cells; expressed in transfected cells; host or cells: CHO-K1 (Chinese hamster ovary, ATCC), stably co-expressing Gqi5
T1 sequence (P08173 1-479): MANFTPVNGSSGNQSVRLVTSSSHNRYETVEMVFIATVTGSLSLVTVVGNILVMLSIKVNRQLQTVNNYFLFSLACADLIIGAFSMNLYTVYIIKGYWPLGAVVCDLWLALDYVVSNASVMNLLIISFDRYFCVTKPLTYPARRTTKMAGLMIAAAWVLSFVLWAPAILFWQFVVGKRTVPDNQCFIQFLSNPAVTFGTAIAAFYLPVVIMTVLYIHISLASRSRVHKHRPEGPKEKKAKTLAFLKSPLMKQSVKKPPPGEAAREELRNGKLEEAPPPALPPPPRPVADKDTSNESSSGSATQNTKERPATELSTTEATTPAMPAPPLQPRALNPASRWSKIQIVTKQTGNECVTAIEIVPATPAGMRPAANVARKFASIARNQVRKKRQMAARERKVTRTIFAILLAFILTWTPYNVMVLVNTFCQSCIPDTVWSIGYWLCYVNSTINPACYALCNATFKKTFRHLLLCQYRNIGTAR
Test: mAChR M4 cell-based functional assay (calcium flux, decrease of EC80 acetylcholine response)
Details: for remaining activity at 30 µM / Human M4 Emin: % ACh maximum at 30 μM; for remaining activity at 30 µM: read-out: Human M4 Emin; for IC50: M4/Gqi5/CHO-K1 cells, decrease of response to EC80 acetylcholine
Description: Human or rat M4 cDNA, along with the chimeric G protein Gqi5, were transfected into Chinese hamster ovary (CHO-K1) cells purchased from the American Type Culture Collection using Lipofectamine2000. M4/Gqi5/CHO cells were grown in Ham's F-12 medium containing 10% heat-inactivated fetal bovine serum (FBS), 20 mM HEPES, 500 μg/mL G418 sulfate, and 200 μg/mL Hygromycin B.
For high throughput measurement of agonist-evoked increases in intracellular calcium, CHO-K1 cells stably expressing muscarinic receptors were plated in growth medium lacking G418 and hygromycin at 15,000 cells/20 μL/well in Greiner 384-well black-walled, tissue culture (TC)-treated, clear-bottom plates (VWR). Cells were incubated overnight at 37° C. and 5% CO2. The next day, cells were washed using an ELX 405 (BioTek) with assay buffer; the final volume was then aspirated to 20 μL. Next, 20 μL of a 2.3 μM stock of Fluo-4/acetoxymethyl ester (Invitrogen, Carlsbad, Calif.), prepared as a 2.3 mM stock in DMSO and mixed in a 1:1 ratio with 10% (w/v) Pluronic F-127 and diluted in assay buffer, was added to the wells and the cell plates were incubated for 50 min at 37° C. and 5% CO2. Dye was removed by washing with the ELX 405 and the final volume was aspirated to 20 μL. Compound master plates were formatted in a 10 point concentration-response curve (CRC) format (1:3 dilutions) in 100% DMSO with a starting concentration of 10 or 1 mM using a BRAVO liquid handler (Agilent). Test compound CRCs were then transferred to daughter plates (240 nL) using the Echo acoustic plate reformatter (Labcyte, Sunnyvale, Calif.) and then diluted into assay buffer (40 μL) to a 2×stock using a Thermo Fisher Combi (Thermo Fisher Scientific, Waltham, Mass.).
Calcium flux was measured using the Functional Drug Screening System (FDSS) 6000 or 7000 (Hamamatsu Corporation, Tokyo, Japan) as an increase in the fluorescent static ratio. Compounds were applied to cells (20 μL, 2×) using the automated system of the FDSS at 2 seconds into the protocol and the data were collected at 1 Hz. At 143 s, 10 μL of an EC20 concentration of the muscarinic receptor agonist acetylcholine was added (5×), followed by the addition of 12 μL of an EC80 concentration of acetylcholine at the 268 s time point (5×). Agonist activity was analyzed as a concentration-dependent increase in calcium mobilization upon compound addition. Positive allosteric modulator activity was analyzed as a concentration-dependent increase in the EC20 acetylcholine response. Antagonist activity was analyzed as a concentration-dependent decrease in the EC80 acetylcholine response; for the purposes of the tables herein, an IC50 (inhibitory concentration 50) was calculated as a concentration-dependent decrease of the response elicited by an EC80 concentration of acetylcholine. Concentration-response curves were generated using a four-parameter logistical equation in XLFit curve fitting software (IDBS, Bridgewater, N.J.) for Excel (Microsoft, Redmond, Wash.) or Prism (GraphPad Software, Inc., San Diego, Calif.) or the Dotmatics software platform (Dotmatics, Bishop's Stortford, UK).
Compounds were synthesized as described above. Activity (IC50 and Emin) was determined in the mAChR M4 cell-based functional assay as described above and the data are shown in Table 2.

remaining activity at 30 µM | IC50 | Human M4 Emin | Compound
4% | 350 nM | – | FC(F)(F)c1cc(-c2ccccc2)nnc1N[C@H]1C[C@@H]2CN(Cc3ccccn3)C[C@@H]2C1 [Example 102, (3aR,5s,6aS)-N-(6-phenyl-4-(trifluoro-methyl)pyridazin-3-yl)-2-(pyridin-2-ylmethyl)octahydro-cyclopenta[c]pyrrol-5-amine]
4% | 394 nM | – | Cn1cc2cc(-c3cnc(N[C@H]4C[C@@H]5CN(CCC(C)(C)C)C[C@@H]5C4)nc3)ccc2n1 [Example 14, (3aR,5s,6aS)-2-(3,3-dimethyl-butyl)-N-(5-(2-methyl-2H-indazol-5-yl)pyrimidin-2-yl)octahydro-cyclopenta[c]pyrrol-5-amine]
2% | 1.1 nM | – | Cc1ccc(F)cc1-c1cc(C#N)c(N[C@H]2C[C@@H]3CN(C[C@H]4CC5CCC4O5)C[C@@H]3C2)nn1 (stereo partly drawn) [Example 148, 3-(((3aR,5s,6aS)-2-(((2R)-7-oxabicyclo[2.2.1]heptan-2-yl)methyl)octahydro-cyclopenta[c]pyrrol-5-yl)amino)-6-(5-fluoro-2-methylphenyl)pyridazine-4-carbonitrile]
– | 14 nM | 3% | Cc1ccc(F)cc1-c1cc(C(F)(F)F)c(N[C@H]2C[C@@H]3CN(CC4CCCCO4)C[C@@H]3C2)nn1 (single isomer, unassigned) [Example 119]
– | 11.5 nM | 10% | Cn1cc2cc(-c3cc(C#N)c(N[C@H]4C[C@@H]5CN(CC6CCCOC6)C[C@@H]5C4)nn3)ccc2n1 (single isomer, unassigned) [Example 159]
3% | 201 nM | – | CCOc1ccc(F)cc1-c1cc(C(F)(F)F)c(N[C@H]2C[C@@H]3CN(CC4CCOCC4)C[C@@H]3C2)nn1 [Example 73, (3aR,5s,6aS)-N-(6-(2-ethoxy-5-fluorophenyl)-4-(trifluoromethyl)pyridazin-3-yl)-2-((tetrahydro-2H-pyran-4-yl)methyl)octahydro-cyclopenta[c]pyrrol-5-amine]
3% | 69 nM | – | FC(F)(F)c1cc(-c2ccccc2)nnc1N[C@H]1C[C@@H]2CN(CC3CCOCC3)C[C@@H]2C1 [Example 65, (3aR,5s,6aS)-N-(6-phenyl-4-(trifluoromethyl)pyridazin-3-yl)-2-((tetrahydro-2H-pyran-4-yl)methyl)octahydro-cyclopenta[c]pyrrol-5-amine]
3% | 55.3 nM | – | [2H]C([2H])(C1CCOCC1)N1C[C@H]2C[C@H](Nc3nnc(-c4ccc5c(c4)OCC5)cc3C(F)(F)F)C[C@H]2C1 [Example 123, (3aR,5s,6aS)-N-(6-(2,3-dihydro-benzofuran-6-yl)-4-(trifluoro-methyl)pyridazin-3-yl)-2-((tetrahydro-2H-pyran-4-yl)methyl-d2)octahydro-cyclopenta[c]pyrrol-5-amine]
3% | 615 nM | – | Fc1ccc(F)c(-c2cc(C(F)(F)F)c(N[C@H]3C[C@@H]4CN(Cc5ccccn5)C[C@@H]4C3)nn2)c1 [Example 48, (3aR,5s,6aS)-N-(6-(2,5-difluorophenyl)-4-(trifluoromethyl)pyridazin-3-yl)-2-(pyridin-2-ylmethyl)octahydro-cyclopenta[c]pyrrol-5-amine]
3% | 173 nM | – | [2H]C([2H])(C1CCOCC1)N1C[C@H]2C[C@H](Nc3nnc(-c4cc(F)cc(F)c4F)cc3C(F)(F)F)C[C@H]2C1 [Example 124, (3aR,5s,6aS)-2-((tetrahydro-2H-pyran-4-yl)methyl-d2)-N-(4-(trifluoromethyl)-6-(2,3,5-trifluorophenyl)pyridazin-3-yl)octahydrocyclopenta[c]pyrrol-5-amine]
3% | 280 nM | – | CCOc1cc(F)c(-c2cc(C(F)(F)F)c(N[C@H]3C[C@@H]4CN(CC5CCOCC5)C[C@@H]4C3)nn2)cc1F [Example 91, (3aR,5s,6aS)-N-(6-(4-ethoxy-2,5-difluorophenyl)-4-(trifluoromethyl)pyridazin-3-yl)-2-((tetrahydro-2H-pyran-4-yl)methyl)octahydro-cyclopenta[c]pyrrol-5-amine]
3% | 349 nM | – | Cc1ccc(-c2cc(C(F)(F)F)c(N[C@H]3C[C@@H]4CN(CC5CCOCC5)C[C@@H]4C3)nn2)c(F)c1 [Example 79, (3aR,5s,6aS)-N-(6-(2-fluoro-4-methylphenyl)-4-(trifluoromethyl)pyridazin-3-yl)-2-((tetrahydro-2H-pyran-4-yl)methyl)octahydro-cyclopenta[c]pyrrol-5-amine]
4% | 55.6 nM | – | Cc1ccc(F)cc1-c1cc(C(F)(F)F)c(N[C@H]2C[C@@H]3CN(C[C@@H]4CCOC4)C[C@@H]3C2)nn1 [Example 30, (3aR,5s,6aS)-N-(6-(5-fluoro-2-methylphenyl)-4-(trifluoromethyl)pyridazin-3-yl)-2-(((S)-tetrahydrofuran-3-yl)methyl)octahydro-cyclopenta[c]pyrrol-5-amine]
3% | 38.9 nM | – | Cc1cc(F)ccc1-c1cc(C(F)(F)F)c(N[C@H]2C[C@@H]3CN(CC4CCOCC4)C[C@@H]3C2)nn1 [Example 74, (3aR,5s,6aS)-N-(6-(4-fluoro-2-methylphenyl)-4-(trifluoromethyl)pyridazin-3-yl)-2-((tetrahydro-2H-pyran-4-yl)methyl)octahydro-cyclopenta[c]pyrrol-5-amine]
3% | 170 nM | – | COc1c(F)cc(-c2cc(C(F)(F)F)c(N[C@H]3C[C@@H]4CN(CC5CCOCC5)C[C@@H]4C3)nn2)cc1F [Example 80, (3aR,5s,6aS)-N-(6-(3,5-difluoro-4-methoxyphenyl)-4-(trifluoromethyl)pyridazin-3-yl)-2-((tetrahydro-2H-pyran-4-yl)methyl)octahydro-cyclopenta[c]pyrrol-5-amine]
3% | 3330 nM | – | CC(C)(C)CCN1C[C@H]2C[C@H](Nc3ncc(-c4cc(F)ccc4Cl)cn3)C[C@H]2C1 [Example 15, (3aR,5s,6aS)-N-(5-(2-chloro-5-fluorophenyl)pyrimidin-2-yl)-2-(3,3-dimethylbutyl)octahydro-cyclopenta[c]pyrrol-5-amine]
6% | 15.6 nM | – | Cc1ccc(F)cc1-c1cc(C#N)c(N[C@H]2C[C@@H]3CN(CC4CCOCC4)C[C@@H]3C2)nn1 [Example 146, 6-(5-fluoro-2-methylphenyl)-3-(((3aR,5s,6aS)-2-((tetrahydro-2H-pyran-4-yl)methyl)octahydro-cyclopenta[c]pyrrol-5-yl)amino)pyridazine-4-carbonitrile]
4% | 2.41 nM | – | Cc1ccc(F)cc1-c1cc(C(F)(F)F)c(N[C@H]2C[C@@H]3CN(CC4CCOCC4)C[C@@H]3C2)nn1 [compound 11]
